Test results: patent US20250026741A1, “INHIBITORS OF THE ONCOGENIC SHP2 PHOSPHATASE AND USES THEREOF” (Sanford Burnham Prebys Medical Discovery Institute, priority 2021, published 2025)
Read-outs that look alike come from different tables or passages of the source.

Assays:
[1] = biological target: full-length SHP2-E76K oncogenic mutant (Homo sapiens (Human), UniProt Q06124, E76K); test: DiFMUP fluorescence intensity phosphatase inhibition assay, SHP2-E76K; type: biochemical
Description: (§1) To test the synthesized compounds for their potential to inhibit SHP2 activity, a fluorescence intensity-based assay using 6,8-difluoro-4-methylumbelliferyl phosphate (DiFMUP) as the substrate was adapted for three recombinant SHP2 constructs: 1) the SHP2 catalytic domain (SHP2cat; residues 248-527), 2) the full-length SHP2-E76K oncogenic mutant, and 3) the full-length SHP2 wild-type (SHP2-WT). The recombinant SHP2 proteins were expressed and purified. A dually phosphorylated peptide derived from the insulin receptor substrate 1 (IRS-1) served as a surrogate binding protein and was used to activate SHP2-WT. […] Michaelis-Menten experiments to determine the DiFMUP Michaelis-Menten constant (Kmn) for each SHP2 construct were performed and yielded the following values: SHP2-WT, Km=60 μM; SHP2-E76K, Km=20 μM; SHP2cat, Km=20 μM. Relative maximum rates (Vmax) of the DiFMUP reactions were as follows: SHP2-WT, Vmax=871 AFU/min; SHP2-E76K, Vmax, =2730 AFU/min; SHP2cat, Vmax=2912 AFU/min. IC50 values for each compound were determined from initial rates in 10-point dose-response assays using DiFMUP at a concentration corresponding to its Km value for the respective SHP2 construct.
(§2) SHP2 inhibitors were tested at room temperature (RT) in a 384-well plate format standard phosphatase fluorescence intensity assay using DiFMUP (Invitrogen/Thermo Fisher Scientific, Carlsbad, CA) as a substrate and a total reaction volume of 25 μL. SHP2 inhibitors or vehicle (DMSO) were spotted in triplicate into a black Greiner FLUOTRAC™ 200 384-well microplate (#781076, Greiner) for a 10-point dose-response assay using an Echo®555 Liquid Handler (Labcyte, Inc., San Jose, CA). PTP working solutions were prepared at a 0.625 nM concentration (for a final concentration of 0.5 nM) in buffer containing 50 mM Bis-Tris pH 6.0, 50 mM NaCl, 5 mM DTT, and 0.01% Tween® 20. Prior to the assay, a dually phosphorylated insulin receptor substrate 1 (IRS-1) peptide [625 nM (500 nMfinal) (30)] was added to full-length WT SHP2 working solutions and incubated for 20 min. DiFMUP working solutions at 5× final concentration were prepared in 50 mM Bis-Tris pH 6.0, 50 mMNaCl, and 0.01% Tween 20. 20 μL of PTP working solution was dispensed into the microplate and incubated with inhibitor for 20 min at RT. […] The reaction was initiated by addition of 5 μL DiFMUP working solutions. Fluorescence intensity was measured in kinetic mode (every minute for 7 or 10 min) using a Tecan Spark® Multimode Microplate Reader (Tecan, Groedig, Austria) with an excitation wavelength of 360 nm and an emission wavelength of 460 nm. The initial rates were determined from the linear progression curves of the PTP reaction. The nonenzymatic hydrolysis of the substrate was corrected by using a control without addition of enzyme. IC50 values were calculated from the corrected initial rates by nonlinear regression using the program GraphPad Prism (GraphPad Software, Inc., San Diego, CA) Version 8. Dose-response inhibition assays of SHP2cat using the substrate OMFP were performed similarly as described above for DiFMUP. OMFP was used at a concentration corresponding to its Km value for SHP2cat (50 μM final). Fluorescence intensity was measured in kinetic mode (every minute for 10 min) using a Tecan Spark Multimode Microplate Reader with an excitation wavelength of 485 nm and an emission wavelength of 535 nm. Initial rates were determined and IC50 vales calculated as described above.

[2] = biological target: SHP2 catalytic domain (SHP2cat; residues 248-527) (Homo sapiens (Human), UniProt Q06124); test: DiFMUP fluorescence intensity phosphatase inhibition assay, SHP2cat; type: biochemical
Description: as §1, §2

SHP2cat = SHP2cat (Homo sapiens (Human), UniProt Q06124); test: OMFP fluorescence intensity inhibition assay, SHP2cat; type: biochemical; details: OMFP at Km (50 μM); read-out: IC50 against SHP2cat with OMFP
Description: We confirmed specific and dose-dependent binding of inhibitors to SHP2 by protein thermal shift, which monitors the thermal stability of a target protein in vitro. […] In addition, we confirmed the inhibitory activity of several furanylbenzamide inhibitors, including the top two compounds #02 and #01, in SHP2cat inhibition assays using the alternative substrate 3-O-methylfluorescein phosphate (OMFP), which features a peak fluorescence emission that is red-shifted by […] compared to DiFMUP. The Km value of OMFP for SHP2cat was determined to be 50 μM. An OMFP fluorescence intensity-based assay was used to perform inhibitor dose-response experiments and determine IC50 values.
SHP2 inhibitors were tested at room temperature (RT) in a 384-well plate format standard phosphatase fluorescence intensity assay using DiFMUP (Invitrogen/Thermo Fisher Scientific, Carlsbad, CA) as a substrate and a total reaction volume of 25 μL. […] Fluorescence intensity was measured in kinetic mode (every minute for 7 or 10 min) using a Tecan Spark® Multimode Microplate Reader (Tecan, Groedig, Austria) with an excitation wavelength of 360 nm and an emission wavelength of 460 nm. The initial rates were determined from the linear progression curves of the PTP reaction. […] Initial rates were determined and IC50 vales calculated as described above.

[3] = test system: MLL-AF10 leukemia cells expressing wild-type SHP2; test: Cell viability assay, MLL-AF10 cells expressing wild-type SHP2; type: cell-based, mouse; details: Mus musculus
Procedure: (§3) Cell viability assays of SHP099, #01, and #02 against mouse MLL-AF10 leukemia cells were conducted. Two MLL-AF10 cell lines were employed, one expressing wild-type SHP2, and the other expressing E76K mutant SHP2.

[4] = test system: MLL-AF10 leukemia cells expressing E76K mutant SHP2; test: Cell viability assay, MLL-AF10 cells expressing E76K mutant SHP2; type: cell-based, mouse; details: Mus musculus
Procedure: as §3

[5] = DiFMUP at Km (20 μM), 10-point dose-response, read-out: SHP2-E76K IC50
[6] = DiFMUP at Km (20 μM), read-out: SHP2cat IC50
[7] = catalytic domain, DiFMUP at Km, read-out: SHP2 IC50

SHP2 catalytic domain (SHP2cat; residues 248-527), sequence (Q06124 248-527): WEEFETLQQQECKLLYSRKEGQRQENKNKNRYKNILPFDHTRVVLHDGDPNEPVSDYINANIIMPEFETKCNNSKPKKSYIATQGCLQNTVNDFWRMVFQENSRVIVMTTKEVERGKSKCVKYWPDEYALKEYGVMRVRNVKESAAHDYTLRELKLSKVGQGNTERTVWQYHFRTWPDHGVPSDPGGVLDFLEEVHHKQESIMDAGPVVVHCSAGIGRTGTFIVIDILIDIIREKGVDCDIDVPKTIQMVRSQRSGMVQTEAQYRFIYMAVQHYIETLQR
full-length SHP2-E76K oncogenic mutant, sequence (Q06124 whole entry E76K, the tested form may be a part): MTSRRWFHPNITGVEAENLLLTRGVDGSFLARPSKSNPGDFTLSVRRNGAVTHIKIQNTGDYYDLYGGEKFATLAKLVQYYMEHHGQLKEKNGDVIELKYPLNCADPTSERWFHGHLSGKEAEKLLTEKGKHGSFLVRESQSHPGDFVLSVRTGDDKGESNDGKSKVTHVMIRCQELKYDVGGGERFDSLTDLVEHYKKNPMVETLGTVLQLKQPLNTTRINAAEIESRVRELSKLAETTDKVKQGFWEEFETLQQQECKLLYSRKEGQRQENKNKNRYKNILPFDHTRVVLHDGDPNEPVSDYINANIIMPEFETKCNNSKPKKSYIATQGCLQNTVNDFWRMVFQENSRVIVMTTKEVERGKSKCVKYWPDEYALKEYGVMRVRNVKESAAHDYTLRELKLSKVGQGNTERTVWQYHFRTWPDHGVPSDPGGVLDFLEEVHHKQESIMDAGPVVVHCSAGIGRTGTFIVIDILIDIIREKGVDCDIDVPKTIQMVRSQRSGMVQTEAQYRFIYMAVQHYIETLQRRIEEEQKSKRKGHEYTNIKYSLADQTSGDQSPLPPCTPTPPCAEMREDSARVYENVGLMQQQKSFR
SHP2cat, sequence (Q06124 248-527): as the sequence (Q06124 248-527) above

Row | Compound | IC50 [1, 5] | IC50 [2, 6] | IC50 [2, 7] | IC50 (SHP2cat) | IC50 [3] | IC50 [4] | IC50 ([1]; IC50 against SHP2-E76K, in vitro phosphatase inhibition assay, screening hit, heading: IC50 against SHP2-E76K)
1 | Nc1ccc(NC(=O)c2cc(-c3ccc(/C=C4\Sc5ccccc5C4=O)o3)ccc2O)cc1 [#01, (Z)—N-(4-Aminophenyl)-2-hydroxy-5-(5-((3-oxobenzo[b]thiophen-2(3H)-ylidene)methyl)furan-2-yl)benzamide] | ≤ 1000 nM | ≤ 1000 nM | 220 nM | 1200 nM | 916 nM | 2000 nM | –
2 | O=C(Nc1ccccc1)c1cc(-c2ccc(/C=C3\Sc4ccccc4C3=O)o2)ccc1O [#02, (Z)-2-hydroxy-5-(5-((3-oxobenzo[b]thiophen-2(3H)-ylidene)methyl)furan-2-yl)-N-phenylbenzamide] | 1000 to 20000 nM | ≤ 1000 nM | 730 nM | 440 nM | 2000 nM | 3000 nM | 1800 nM
3 | N#Cc1cc(-c2ccc(/C=C3\Sc4ccccc4C3=O)o2)ccc1O [#05, (Z)-2-Hydroxy-5-(5-((3-oxobenzo[b]thiophen-2(3H)-ylidene)methyl)furan-2-yl)benzonitrile] | 1000 to 20000 nM | 1000 to 20000 nM | 1400 nM | – | – | – | –
